Laboratory results as given in ChEMBL document CHEMBL1201862, “PubChem BioAssay data set” (2004).
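1) Cells in 96-well plates. 2) Compound, 48 h, 5 concentrations. 3) Linear interpolation between surrounding doses. 4) Unreached endpoint = highest concentration. GI50: concentration for 50% inhibition of growth.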 The source made the active and inactive calls. No stated cut-off is given here; in the data, active = GI50 up to about 1.1 µM and inactive = higher.

Assays:
Experiment in all cases: DTP human tumour cell line panel, 48 h
[1] = system: 786-0
[2] = system: A549
[3] = system: CCRF-CEM
[4] = system: COLO 205
[5] = system: DU-145
[6] = system: EKVX
[7] = system: HOP-62
[8] = system: KM12
[9] = system: LOX IMVI
[10] = system: MDA-MB-435
[11] = system: MDA-N
[12] = system: MOLT-4
[13] = system: NCI-H226
[14] = system: NCI-H23
[15] = system: NCI-H460
[16] = system: OVCAR-3
[17] = system: OVCAR-5
[18] = system: SF-295
[19] = system: SK-MEL-2
[20] = system: UO-31

Measured: GI50

COc1ccc(C2=C(N)c3c(Cl)cccc3C2=O)cc1
inactive: [1] > 100 µM | [2] > 100 µM | [3] > 100 µM | [4] > 100 µM | [5] > 100 µM | [6] > 100 µM | [7] 70 µM | [8] > 100 µM | [9] > 100 µM | [10] > 100 µM | [11] > 100 µM | [12] 95.1 µM | [13] > 100 µM | [14] 32.6 µM | [15] > 100 µM | [16] > 100 µM | [17] > 100 µM | [18] > 100 µM | [19] > 100 µM

CC(NNC(=O)c1cc[n+]([BH2-]C#N)cc1)c1ccc(Cl)cc1Cl (configuration not stated)
inactive: [1] 49.1 µM | [2] 37.2 µM | [3] 33.3 µM | [4] 60.7 µM | [5] 68.5 µM | [6] 24.5 µM | [8] 34.8 µM | [9] 29.2 µM | [10] 42.1 µM | [11] > 100 µM | [12] 17.5 µM | [13] 14.2 µM | [15] 44.1 µM | [16] 25 µM | [17] 42.2 µM | [18] 32.5 µM | [19] 49.5 µM | [20] 26.2 µM

CCCNC(C#N)c1ccc(C(C#N)NCCC)cc1 (configuration not stated)
inactive: [1] > 100 µM | [2] > 100 µM | [3] 24.4 µM | [4] 81.3 µM | [5] > 100 µM | [6] > 100 µM | [8] > 100 µM | [9] > 100 µM | [10] 76.4 µM | [11] 36.3 µM | [12] 37.3 µM | [13] > 100 µM | [14] > 100 µM | [15] > 100 µM | [16] > 100 µM | [17] > 100 µM | [18] > 100 µM | [19] > 100 µM | [20] > 100 µM

CN1C(=O)[C@@H]2[C@@H]3c4ccccc4N(S(=O)(=O)C(F)(F)F)[C@@H]3c3[nH]c4ccccc4c3[C@@H]2C1=O
inactive: [1] 63.7 µM | [2] 11.2 µM | [3] 25.2 µM | [4] 7.91 µM | [5] 98.2 µM | [6] 5.74 µM | [7] > 100 µM | [9] > 100 µM | [10] > 100 µM | [11] > 100 µM | [12] 4.3 µM | [13] 5.52 µM | [14] 54.1 µM | [15] 21.5 µM | [16] 22.6 µM | [17] > 100 µM | [18] 50.7 µM | [19] 81.5 µM | [20] 14.1 µM

O=S(=O)(O)c1ccc2c(/N=N/c3cccc4ccccc34)c(O)c(S(=O)(=O)O)cc2c1
inactive: [1] > 100 µM | [2] > 100 µM | [3] > 100 µM | [4] > 100 µM | [5] > 100 µM | [6] > 100 µM | [7] > 100 µM | [8] > 100 µM | [9] > 100 µM | [10] > 100 µM | [11] > 100 µM | [12] > 100 µM | [13] > 100 µM | [14] > 100 µM | [16] > 100 µM | [17] > 100 µM | [18] > 100 µM | [19] > 100 µM | [20] > 100 µM

CC(C)=CCc1c(O)c(CC2=C(O)C(CC=C(C)C)(C(=O)C(C)C)C(O)=C(C)C2=O)c(O)c(C(=O)C(C)C)c1O (configuration not stated)
inactive: [1] 10.7 µM | [2] 14.1 µM | [3] 5.78 µM | [4] 13 µM | [5] 18.9 µM | [6] 17.7 µM | [7] 11.3 µM | [8] 7.53 µM | [9] 9.48 µM | [10] 16.2 µM | [11] 14.3 µM | [12] 2.31 µM | [13] 7.93 µM | [14] 8.43 µM | [16] 12.2 µM | [17] 11.9 µM | [18] 9.33 µM | [19] 11.5 µM | [20] 7.59 µM

CN(C)N1C(=O)S/C(=C\c2ccc([N+](=O)[O-])cc2)C1=O
inactive: [1] > 100 µM | [2] > 100 µM | [3] 55.2 µM | [4] > 100 µM | [5] > 100 µM | [6] > 100 µM | [7] > 100 µM | [8] > 100 µM | [9] > 100 µM | [10] > 100 µM | [11] > 100 µM | [12] > 100 µM | [13] > 100 µM | [14] > 100 µM | [15] > 100 µM | [16] > 100 µM | [17] > 100 µM | [18] > 100 µM | [19] > 100 µM
